How the values were obtained:
P2X3 = target: T1, P2X3 (Homo sapiens, UniProt P56373); experiment: Calcium uptake assay (P2X antagonist assay, inhibition of agonist-induced calcium influx), P2X3; assay type: cell-based; settings: inhibition of agonist-induced calcium influx in cells expressing the receptor
T1 construct: expressed in transfected cells; host or cells: e.g. HEK293 or 1321N1
T1 sequence (P56373 1-397): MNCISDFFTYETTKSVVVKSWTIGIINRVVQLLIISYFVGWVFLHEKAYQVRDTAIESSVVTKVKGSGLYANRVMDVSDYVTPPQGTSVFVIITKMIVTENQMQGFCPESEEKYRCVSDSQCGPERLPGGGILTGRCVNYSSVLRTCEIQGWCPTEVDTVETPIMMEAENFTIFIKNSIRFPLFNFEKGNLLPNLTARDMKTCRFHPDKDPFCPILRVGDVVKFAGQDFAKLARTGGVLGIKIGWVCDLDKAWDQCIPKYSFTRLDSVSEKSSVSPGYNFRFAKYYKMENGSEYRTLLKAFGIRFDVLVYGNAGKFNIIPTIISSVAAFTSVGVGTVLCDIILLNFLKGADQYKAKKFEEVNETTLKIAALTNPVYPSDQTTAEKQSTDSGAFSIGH
Excerpt: (§1) The human P2X2/3 chimera clone is created as described by Neelands et al, and then cloned into an expression vector as above. Receptors are expressed in cells (e.g., HEK293 or 1321N1 (obtained from the ECACC)) via transient transfection using standard lipid mediated transfection, or by creation of stable transfectants for each receptor. For expression of the P2X2/3 heteromeric receptor, the P2X3 expression vector is stably transfected into a cell line already stably expressing P2X2. P2X2/3 heteromer function is isolated using pharmacological methods. Cell lines are maintained in DMEM+5% Glutamax, the appropriate level of selective antibiotic, and 10% heat inactivated FBS.
(§2) Functional activity of compounds at the P2X receptor is determined by measuring their ability to inhibit agonist-induced calcium influx. Compounds are tested for antagonist activity against the P2X2/3 chimera, the P2X3 homomer, or the P2X2/3 heteromer. At the start of each screening day, the agonist EC50 is determined. Compound % inhibition or IC50s are subsequently determined using a pre-determined agonist concentration (EC50-90 depending on cell line) as a stimulus. The agonists used are αβMeATP, ATP, or other ATP analogs. Compounds may be tested at concentrations ranging from 1 pM to 10 μM.
(§3) To test for antagonist activity, cells expressing the appropriate receptor are seeded onto 96 or 384 well plates 18-24 hours prior to assay. […] Plates are incubated at 37° C. and then equilibrated at room temperature. Antagonism of agonist-induced calcium influx is measured using a fluorescent imaging plate reader (e.g. FLIPR^TETRA, Molecular Devices, Sunnyvale, Calif.). The assay comprises two stages: a pre-treatment phase followed by a treatment phase. Compounds may be tested as follows: For the pre-treatment phase, 50 μL of 3× concentration of test compound in HBSS is added to cells containing 100 μL of dye loading media to achieve a final concentration of 1× test compound. For the treatment phase, at a set interval after pre-treatment (1-30 minutes), 50 μl, of 1× test compound plus 4× agonist solution is added, resulting in a final concentration of 1× compound and 1× agonist. […] Responses are measured as (peak fluorescence after agonist addition) minus (baseline fluorescence prior to treatment). Percent inhibition is calculated as follows: […]
(§4) IC50 values are determined by analyzing dose response data in a 4 parameter logistic fit using GraphPad Prizm.

P2X2/3 = target: T2, P2X2/3 (Homo sapiens, UniProt P56373+Q9UBL9); experiment: Calcium uptake assay (P2X antagonist assay, inhibition of agonist-induced calcium influx), P2X2/3; assay type: cell-based; settings: inhibition of agonist-induced calcium influx in cells expressing the receptor
T2 construct: expressed in transfected cells; host or cells: cell line stably expressing P2X2, stably transfected with P2X3 (e.g. HEK293 or 1321N1)
T2 sequence (Q9UBL9 1-471): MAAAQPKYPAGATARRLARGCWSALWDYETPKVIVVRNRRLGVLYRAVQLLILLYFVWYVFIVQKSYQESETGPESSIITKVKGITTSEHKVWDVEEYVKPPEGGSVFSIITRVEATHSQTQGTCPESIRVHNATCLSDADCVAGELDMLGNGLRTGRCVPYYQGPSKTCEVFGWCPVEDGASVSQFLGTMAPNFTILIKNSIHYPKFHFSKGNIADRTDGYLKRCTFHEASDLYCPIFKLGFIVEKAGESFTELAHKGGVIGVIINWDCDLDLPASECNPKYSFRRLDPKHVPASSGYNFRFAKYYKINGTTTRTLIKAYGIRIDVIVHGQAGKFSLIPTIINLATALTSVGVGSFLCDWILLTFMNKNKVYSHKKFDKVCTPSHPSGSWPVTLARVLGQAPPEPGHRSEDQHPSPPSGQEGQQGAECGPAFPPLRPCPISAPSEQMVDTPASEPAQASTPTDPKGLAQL
T2 sequence (P56373 1-397): T1 sequence (P56373 1-397)
Excerpt: as §1, §2, §3, §4

Row | SMILES | IC50 (P2X3) [µM] | IC50 (P2X2/3) [µM]
1 | Cc1ccc(N2CCc3ncnc(NCc4ccc(C(F)(F)F)nc4)c3C2)c(C#N)c1 [Compound 1, 5-Methyl-2-{4-[(6-trifluoromethyl-pyridin-3-ylmethyl)-amino]-7,8-dihydro-5H-pyrido[4,3-d]pyrimidin-6-yl}-benzonitrile] | 0.019 | 0.092
2 | N#Cc1cc(Br)ccc1N1CCc2ncnc(NCc3ccc(C(F)(F)F)nc3)c2C1 [Compound 2, 5-Bromo-2-{4-[(6-trifluoromethyl-pyridin-3-ylmethyl)-amino]-7,8-dihydro-5H-pyrido[4,3-d]pyrimidin-6-yl}-benzonitrile] | 0.08 | –
3 | N#Cc1cc(C2CC2)ccc1N1CCc2ncnc(NCc3ccc(C(F)(F)F)nc3)c2C1 [Compound 3, 5-Cyclopropyl-2-{4-[(6-trifluoromethyl-pyridin-3-ylmethyl)-amino]-7,8-dihydro-5H-pyrido[4,3-d]pyrimidin-6-yl}-benzonitrile] | 0.87 | –
4 | N#Cc1cc(Cl)ccc1N1CCc2ncnc(NCc3ccc(C(F)(F)F)nc3)c2C1 [Compound 4, 5-Chloro-2-{4-[(6-trifluoromethyl-pyridin-3-ylmethyl)-amino]-7,8-dihydro-5H-pyrido[4,3-d]pyrimidin-6-yl}-benzonitrile] | 0.037 | 0.842
5 | N#Cc1cc(C(F)(F)F)ccc1N1CCc2ncnc(NCc3ccc(C(F)(F)F)nc3)c2C1 [Compound 5, 5-Trifluoromethyl-2-{4-[(6-trifluoromethyl-pyridin-3-ylmethyl)-amino]-7,8-dihydro-5H-pyrido[4,3-d]pyrimidin-6-yl}-benzonitrile] | 1.84 | –
6 | N#Cc1cc(F)ccc1N1CCc2ncnc(NCc3ccc(C(F)(F)F)nc3)c2C1 [Compound 9, 5-Fluoro-2-{4-[(6-trifluoromethyl-pyridin-3-ylmethyl)-amino]-7,8-dihydro-5H-pyrido[4,3-d]pyrimidin-6-yl}-benzonitrile] | 0.085 | 11.4
7 | N#Cc1ccccc1N1CCc2ncnc(NCc3ccc(C(F)(F)F)nc3)c2C1 [Compound 10, 2-{4-[(6-Trifluoromethyl-pyridin-3-ylmethyl)-amino]-7,8-dihydro-5H-pyrido[4,3-d]pyrimidin-6-yl}-benzonitrile] | 0.063 | 1.81
8 | Cc1nc(C(F)(F)F)ccc1CNc1ncnc2c1CN(c1ccc(Cl)cc1C#N)CC2 [Compound 11, 5-Chloro-2-(4-((2-methyl-6-(trifluoromethyl)pyridin-3-yl)methylamino)-7,8-dihydropyrido[4,3-d]pyrimidin-6(5H)-yl)benzonitrile] | 0.187 | > 10
9 | CN(C)c1ccc(CNc2ncnc3c2CN(c2ccc(Cl)cc2C#N)CC3)cn1 [Compound 12, 5-Chloro-2-(4-((6-(dimethylamino)pyridin-3-yl)methylamino)-7,8-dihydropyrido[4,3-d]pyrimidin-6(5H)-yl)benzonitrile] | 0.628 | 1.19
10 | Cc1ccc(N2CCc3ncnc(NCc4ccc(Cl)nc4)c3C2)c(C#N)c1 [Compound 27, 2-{4-[(6-Chloro-pyridin-3-ylmethyl)-amino]-7,8-dihydro-5H-pyrido[4,3-d]pyrimidin-6-yl}-5-methyl-benzonitrile] | 0.011 | 0.025

The next lines start with the values.

Row | IC50 (P2X3) [µM] | IC50 (P2X2/3) [µM] | SMILES
11 | 0.059 | 0.169 | COc1ccc(CNc2ncnc3c2CN(c2ccc(Cl)cc2C#N)CC3)cn1 [Compound 13, 5-Chloro-2-(4-((6-methoxypyridin-3-yl)methylamino)-7,8-dihydropyrido[4,3-d]pyrimidin-6(5H)-yl)benzonitrile]
12 | 0.078 | 0.325 | COc1ccc(CNc2ncnc3c2CN(c2ccc(Br)cc2C#N)CC3)cn1 [Compound 14, 5-Bromo-2-(4-((6-methoxypyridin-3-yl)methylamino)-7,8-dihydropyrido[4,3-d]pyrimidin-6(5H)-yl)benzonitrile]
13 | 0.091 | 1.13 | N#Cc1cc(Cl)ccc1N1CCc2ncnc(NCc3ncc(C(F)(F)F)cc3Cl)c2C1 [Compound 16, 5-Chloro-2-{4-[(3-chloro-5-trifluoromethyl-pyridin-2-ylmethyl)-amino]-7,8-dihydro-5H-pyrido[4,3-d]pyrimidin-6-yl}-benzonitrile]
14 | 0.118 | 4.89 | N#Cc1cc(Cl)ccc1N1CCc2ncnc(NCc3ccc(C(F)(F)F)cn3)c2C1 [Compound 17, 5-Chloro-2-{4-[(5-trifluoromethyl-pyridin-2-ylmethyl)-amino]-7,8-dihydro-5H-pyrido[4,3-d]pyrimidin-6-yl}-benzonitrile]
15 | > 10 | > 10 | COc1ccc([C@@H](CC(=O)OC(C)(C)C)Nc2ncnc3c2CN(c2ccc(Cl)cc2C#N)CC3)cn1 [Compound 18, (R)-3-[6-(4-Chloro-2-cyano-phenyl)-5,6,7,8-tetrahydro-pyrido[4,3-d]pyrimidin-4-ylamino]-3-(6-methoxy-pyridin-3-yl)-propionic acid tert-butyl ester]
16 | 1.38 | > 10 | COc1ccc([C@@H](CC(=O)O)Nc2ncnc3c2CN(c2ccc(Cl)cc2C#N)CC3)cn1 [Compound 19, (R)-3-[6-(4-Chloro-2-cyano-phenyl)-5,6,7,8-tetrahydro-pyrido[4,3-d]pyrimidin-4-ylamino]-3-(6-methoxy-pyridin-3-yl)-propionic acid]
17 | 0.09 | 0.903 | N#Cc1cc(Cl)ccc1N1CCc2ncnc(N[C@H](CCO)c3ccc(C(F)(F)F)nc3)c2C1 [Compound 20, 5-Chloro-2-{4-[(R)-3-hydroxy-1-(6-trifluoromethyl-pyridin-3-yl)-propylamino]-7,8-dihydro-5H-pyrido[4,3-d]pyrimidin-6-yl}-benzonitrile]
18 | 0.013 | 0.043 | Cc1ccc(N2CCc3ncnc(N[C@H](CCO)c4ccc(C(F)F)nc4)c3C2)c(C#N)c1 [Compound 22, 2-{4-[(R)-1-(6-Difluoromethyl-pyridin-3-yl)-3-hydroxy-propylamino]-7,8-dihydro-5H-pyrido[4,3-d]pyrimidin-6-yl}-5-methyl-benzonitrile]
19 | 0.055 | 0.136 | Cc1ccc(N2CCc3ncnc(NC(CCO)c4ccc(C(F)(F)F)nc4)c3C2)c(C#N)c1 (stereo not drawn) [Compound 25, 2-{4-[3-Hydroxy-1-(6-trifluoromethyl-pyridin-3-yl)-propylamino]-7,8-dihydro-5H-pyrido[4,3-d]pyrimidin-6-yl}-5-methyl-benzonitrile]
20 | 0.029 | 0.152 | Cc1ccc(N2CCc3ncnc(NCc4ccc(Cl)cn4)c3C2)c(C#N)c1 [Compound 28, 2-{-4-[(5-Chloro-pyridin-2-ylmethyl)-amino]-7,8-dihydro-5,1-pyrido[4,3-d]pyrimidin-6-yl}-5-methyl-benzonitrile]
21 | 0.196 | 1.67 | Cc1ccc(N2CCc3ncnc(NCc4ccccn4)c3C2)c(C#N)c1 [Compound 29, 5-Methyl-2-{4-[(pyridin-2-ylmethyl)-amino]-7,8-dihydro-5H-pyrido[4,3-d]pyrimidin-6-yl}-benzonitrile]
